Experimental data reported in PubChem BioAssay (NCI).
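Each compound was tested at five concentrations against cells in 96-well plates for 48 hours. GI50 marks 50% less growth. TGI denotes the concentration required for complete inhibition of growth.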

How the values were obtained:
Assay in all cases: NCI anticancer screen, dose series, 48 h
786-0 renal = tested on: 786-0 renal
A498 renal = tested on: A498 renal
A549 NSCLC = tested on: A549 NSCLC
ACHN renal = tested on: ACHN renal
BT-549 breast = tested on: BT-549 breast
CAKI-1 renal = tested on: CAKI-1 renal
CCRF-CEM leukemia = tested on: CCRF-CEM leukemia
COLO 205 colon = tested on: COLO 205 colon
DU-145 prostate = tested on: DU-145 prostate
HCC-2998 colon = tested on: HCC-2998 colon
HCT-116 colon = tested on: HCT-116 colon
HCT-15 colon = tested on: HCT-15 colon
HL-60(TB) leukemia = tested on: HL-60(TB) leukemia
HOP-62 NSCLC = tested on: HOP-62 NSCLC
HOP-92 NSCLC = tested on: HOP-92 NSCLC
HS 578T breast = tested on: HS 578T breast
HT29 colon = tested on: HT29 colon
IGROV1 ovarian = tested on: IGROV1 ovarian
K-562 leukemia = tested on: K-562 leukemia
KM12 colon = tested on: KM12 colon
M14 melanoma = tested on: M14 melanoma
MALME-3M melanoma = tested on: MALME-3M melanoma
MCF7 breast = tested on: MCF7 breast
MDA-MB-231 breast = tested on: MDA-MB-231 breast
MDA-MB-435 = tested on: MDA-MB-435
MOLT-4 leukemia = tested on: MOLT-4 leukemia
NCI-H226 lung = tested on: NCI-H226 lung
NCI-H23 lung = tested on: NCI-H23 lung
NCI-H460 lung = tested on: NCI-H460 lung
NCI/ADR-RES ovarian = tested on: NCI/ADR-RES ovarian
OVCAR-3 ovarian = tested on: OVCAR-3 ovarian
OVCAR-4 ovarian = tested on: OVCAR-4 ovarian
OVCAR-5 ovarian = tested on: OVCAR-5 ovarian
OVCAR-8 ovarian = tested on: OVCAR-8 ovarian
PC-3 prostate = tested on: PC-3 prostate
RPMI-8226 leukemia = tested on: RPMI-8226 leukemia
RXF 393 renal = tested on: RXF 393 renal
SF-268 CNS = tested on: SF-268 CNS
SF-295 CNS = tested on: SF-295 CNS
SF-539 CNS = tested on: SF-539 CNS
SK-MEL-2 melanoma = tested on: SK-MEL-2 melanoma
SK-MEL-28 melanoma = tested on: SK-MEL-28 melanoma
SK-MEL-5 melanoma = tested on: SK-MEL-5 melanoma
SK-OV-3 ovarian = tested on: SK-OV-3 ovarian
SN12C renal = tested on: SN12C renal
SNB-19 CNS = tested on: SNB-19 CNS
SNB-75 CNS = tested on: SNB-75 CNS
SR leukemia = tested on: SR leukemia
SW-620 colon = tested on: SW-620 colon
T-47D breast = tested on: T-47D breast
TK-10 renal = tested on: TK-10 renal
U251 CNS = tested on: U251 CNS
UACC-257 melanoma = tested on: UACC-257 melanoma
UACC-62 melanoma = tested on: UACC-62 melanoma
UO-31 renal = tested on: UO-31 renal
EKVX NSCLC = tested on: EKVX NSCLC
NCI-H522 lung = tested on: NCI-H522 lung

## Cc1ccc2cccc(OC(=O)Nc3cccc(C(F)(F)F)c3)c2n1
786-0 renal
  GI50: 4.82 µM
  TGI: 22.2 µM
A498 renal
  GI50: 2590 nM
  TGI: 9.46 µM
A549 NSCLC
  GI50: 3.44 µM
  TGI: 13.4 µM
ACHN renal
  GI50: 3.04 µM
  TGI: 12.4 µM
BT-549 breast
  GI50: 10.7 µM
  TGI: 26.8 µM
CAKI-1 renal
  GI50: 3.25 µM
  TGI: 11.8 µM
CCRF-CEM leukemia
  GI50: 2860 nM
  TGI: 19.2 µM
COLO 205 colon
  GI50: 3.47 µM
  TGI: 10.3 µM
DU-145 prostate
  GI50: 3.95 µM
  TGI: 82.4 µM
HCC-2998 colon
  GI50: 5.29 µM
  TGI: 18.5 µM
HCT-116 colon
  GI50: 3.27 µM
  TGI: 11.1 µM
HCT-15 colon
  GI50: 3.14 µM
  TGI: 11.3 µM
HL-60(TB) leukemia
  GI50: 5.41 µM
  TGI: 38.4 µM
HOP-62 NSCLC
  GI50: 5.83 µM
  TGI: 18.6 µM
HOP-92 NSCLC
  GI50: 2210 nM
  TGI: 6.66 µM
HS 578T breast
  GI50: 3.53 µM
  TGI: 18.9 µM
HT29 colon
  GI50: 3.45 µM
  TGI: 12 µM
IGROV1 ovarian
  GI50: 4.29 µM
  TGI: 17.4 µM
K-562 leukemia
  GI50: 3.63 µM
  TGI: 17.8 µM
KM12 colon
  GI50: 3.19 µM
  TGI: 10.9 µM
M14 melanoma
  GI50: 4.06 µM
  TGI: 16.2 µM
MALME-3M melanoma
  GI50: 3.03 µM
  TGI: 10 µM
MCF7 breast
  GI50: 2260 nM
  TGI: 8.05 µM
MDA-MB-231 breast
  GI50: 2370 nM
  TGI: 7.26 µM
MDA-MB-435
  GI50: 2910 nM
  TGI: 10.9 µM
MOLT-4 leukemia
  GI50: 3.61 µM
  TGI: 24.2 µM
NCI-H226 lung
  GI50: 3.61 µM
  TGI: 14.1 µM
NCI-H23 lung
  GI50: 2780 nM
  TGI: 10 µM
NCI-H460 lung
  GI50: 2840 nM
  TGI: 7.8 µM
NCI/ADR-RES ovarian
  GI50: 3.96 µM
  TGI: 33.3 µM
OVCAR-3 ovarian
  GI50: 3.35 µM
  TGI: 9.61 µM
OVCAR-4 ovarian
  GI50: 2090 nM
  TGI: 10.3 µM
OVCAR-5 ovarian
  GI50: 6.44 µM
  TGI: 32.1 µM
OVCAR-8 ovarian
  GI50: 3.5 µM
  TGI: 14.9 µM
PC-3 prostate
  GI50: 2740 nM
  TGI: 9.79 µM
RPMI-8226 leukemia
  GI50: 2520 nM
  TGI: 7.21 µM
RXF 393 renal
  GI50: 5.3 µM
  TGI: 21.9 µM
SF-268 CNS
  GI50: 4.26 µM
  TGI: 18.3 µM
SF-295 CNS
  GI50: 2500 nM
  TGI: 7.25 µM
SF-539 CNS
  GI50: 5.42 µM
  TGI: 18.1 µM
SK-MEL-2 melanoma
  GI50: 3.47 µM
  TGI: 12.1 µM
SK-MEL-28 melanoma
  GI50: 4.34 µM
  TGI: 16.3 µM
SK-MEL-5 melanoma
  GI50: 7.41 µM
  TGI: 20.1 µM
SK-OV-3 ovarian
  GI50: 4.37 µM
  TGI: 16.2 µM
SN12C renal
  GI50: 2660 nM
  TGI: 8.18 µM
SNB-19 CNS
  GI50: 2890 nM
  TGI: 12.5 µM
SNB-75 CNS
  GI50: 2390 nM
  TGI: 11.7 µM
SR leukemia
  GI50: 5.6 µM
  TGI: > 100 µM
SW-620 colon
  GI50: 3.46 µM
  TGI: 13.3 µM
T-47D breast
  GI50: 3.05 µM
  TGI: 13.4 µM
TK-10 renal
  GI50: 3.87 µM
  TGI: 18.2 µM
U251 CNS
  GI50: 3.07 µM
  TGI: 12.2 µM
UACC-257 melanoma
  GI50: 3.4 µM
  TGI: 12.9 µM
UACC-62 melanoma
  GI50: 3.05 µM
  TGI: 11.2 µM
UO-31 renal
  GI50: 2400 nM
  TGI: 8.99 µM

## COC(=O)c1ccc(/C=C(\c2ccc([N+](=O)[O-])o2)S(=O)(=O)c2ccc(NC(C)=O)cc2)o1
786-0 renal
  TGI: 14.9 µM
A549 NSCLC
  TGI: 34.1 µM
ACHN renal
  TGI: 11.1 µM
BT-549 breast
  TGI: 5.43 µM
CAKI-1 renal
  TGI: 29.4 µM
COLO 205 colon
  TGI: 7.56 µM
DU-145 prostate
  TGI: 21.9 µM
EKVX NSCLC
  TGI: 26.3 µM
HCT-116 colon
  TGI: 8.39 µM
HCT-15 colon
  TGI: 6.83 µM
HL-60(TB) leukemia
  TGI: 8.69 µM
HOP-62 NSCLC
  TGI: 33.4 µM
HOP-92 NSCLC
  TGI: 24 µM
HS 578T breast
  TGI: 6.34 µM
HT29 colon
  TGI: 5.76 µM
IGROV1 ovarian
  TGI: 28.4 µM
K-562 leukemia
  TGI: 18.1 µM
KM12 colon
  TGI: 27.8 µM
M14 melanoma
  TGI: 15.4 µM
MALME-3M melanoma
  TGI: 8.91 µM
MCF7 breast
  TGI: 29.3 µM
MDA-MB-231 breast
  TGI: 5.77 µM
MDA-MB-435
  TGI: 12.8 µM
MOLT-4 leukemia
  TGI: 7.76 µM
NCI-H226 lung
  TGI: 7.98 µM
NCI-H23 lung
  TGI: 28.3 µM
NCI-H460 lung
  TGI: 53.9 µM
NCI-H522 lung
  TGI: 5.02 µM
NCI/ADR-RES ovarian
  TGI: 30.5 µM
OVCAR-3 ovarian
  TGI: 19.7 µM
OVCAR-4 ovarian
  TGI: 4.67 µM
OVCAR-5 ovarian
  TGI: 10.9 µM
OVCAR-8 ovarian
  TGI: 11.8 µM
PC-3 prostate
  TGI: 29.8 µM
RPMI-8226 leukemia
  TGI: 3.03 µM
RXF 393 renal
  TGI: 25.7 µM
SF-268 CNS
  TGI: 30.9 µM
SF-295 CNS
  TGI: 32.7 µM
SF-539 CNS
  TGI: 15.2 µM
SK-MEL-2 melanoma
  TGI: 39.2 µM
SK-MEL-28 melanoma
  TGI: 17.6 µM
SK-MEL-5 melanoma
  TGI: 13.5 µM
SK-OV-3 ovarian
  TGI: 38.2 µM
SN12C renal
  TGI: 1.36 µM
SNB-19 CNS
  TGI: 32.2 µM
SNB-75 CNS
  TGI: 36.2 µM
SR leukemia
  TGI: 4.32 µM
SW-620 colon
  TGI: 11.8 µM
T-47D breast
  TGI: > 100 µM
TK-10 renal
  TGI: 16.2 µM
U251 CNS
  TGI: 28.8 µM
UACC-257 melanoma
  TGI: 4.54 µM
UACC-62 melanoma
  TGI: 4.31 µM
UO-31 renal
  TGI: 18.2 µM
